Source: ChEMBL document CHEMBL1159024, “Inhibitory effect of tannic acid on gastric H+,K(+)-ATPase” (J Nat Prod, 1992)
Calls of active or inactive are those of the source. No cut-off for these calls is given here.

Tests used:
Sus scrofa [1] = organism: Sus scrofa; assay: Inhibition of H(+)/K(+) ATPase from pig gastric mucosa by non competitive-double reciprocal plot in presence of K+; format: tissue-based
Sus scrofa [2] = organism: Sus scrofa; assay: Inhibition of H(+)/K(+) ATPase from pig gastric mucosa by competitive-double reciprocal plot in presence of ATP; format: tissue-based
[3] = Inhibition of H(+)/K(+) ATPase from pig gastric mucosa; format: tissue-based, Sus scrofa
[4] = Inhibition of K+ dependent pNPPase from pig gastric mucosa; format: tissue-based, Sus scrofa

Activity (Sus scrofa [1])	Activity (Sus scrofa [2])	IC50 [3] [nM]	IC50 [4] [nM]	SMILES
Active	Active	210	–	O=c1oc2c(O)c(O)cc3c(=O)oc4c(O)c(O)cc1c4c23 [ELLAGIC ACID]
Active	Active	29	410	O=C(OC[C@H]1O[C@@H](OC(=O)c2cc(O)c(O)c(OC(=O)c3cc(O)c(O)c(O)c3)c2)[C@H](OC(=O)c2cc(O)c(O)c(OC(=O)c3cc(O)c(O)c(O)c3)c2)[C@@H](OC(=O)c2cc(O)c(O)c(OC(=O)c3cc(O)c(O)c(O)c3)c2)[C@@H]1OC(=O)c1cc(O)c(O)c(OC(=O)c2cc(O)c(O)c(O)c2)c1)c1cc(O)c(O)c(OC(=O)c2cc(O)c(O)c(O)c2)c1 [TANNIC ACID]
